In patent US8575203B2, “Chemical compounds” (Boehringer Ingelheim International GmbH, priority 2010, dated 2013):

Molecular target: Recombinant human PDK1 enzyme (aa 52-556) (Homo sapiens (Human), UniProt O15530)
Assay: PDK1 kinase assay
Type: biochemical
Settings: in vitro kinase assay, His6-PDK1 (aa 52-556), PDKtide, P33-ATP
In short: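 Radiometric filter-binding read-out after H3PO4 stop. The reaction ran 90 min at RT, started with a 25 μM ATP/γ-33P-ATP solution, after 30 min RT preincubation of the compound series (10 μM top, 1:5 dilutions) with N-His6 PDK1 aa 52-556 (insect-cell expressed, 3.33 ng/well) and 25 μM final PDKtide.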

Sequence of Recombinant human PDK1 enzyme (aa 52-556) (O15530 52-556): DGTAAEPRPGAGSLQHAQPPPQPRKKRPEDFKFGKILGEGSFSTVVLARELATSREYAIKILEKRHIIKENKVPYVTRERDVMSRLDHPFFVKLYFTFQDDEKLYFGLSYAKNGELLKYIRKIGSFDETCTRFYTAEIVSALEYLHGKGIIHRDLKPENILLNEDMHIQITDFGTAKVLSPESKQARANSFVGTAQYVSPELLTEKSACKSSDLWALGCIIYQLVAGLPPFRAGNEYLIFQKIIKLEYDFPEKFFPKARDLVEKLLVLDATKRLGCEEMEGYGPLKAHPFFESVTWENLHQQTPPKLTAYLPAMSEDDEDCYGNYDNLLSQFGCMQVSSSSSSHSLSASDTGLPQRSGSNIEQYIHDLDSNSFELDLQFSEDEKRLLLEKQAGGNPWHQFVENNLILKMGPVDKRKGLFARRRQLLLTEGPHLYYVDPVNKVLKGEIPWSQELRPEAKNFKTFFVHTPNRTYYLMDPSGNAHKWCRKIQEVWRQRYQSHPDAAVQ

SMILES | IC50
CC1(O)CCN(c2ncnc3ccc(C#CCNC(=O)c4cccn(Cc5ccc(F)c(F)c5)c4=O)cc23)CC1 [II-41] | 0.061 µM
CN(C)c1ncnc2ccc(C#CCNC(=O)c3cccn(Cc4cc[nH]n4)c3=O)cc12 [II-42] | 0.697 µM
CCN(CC)c1ncnc2ccc(C#CCNC(=O)c3cc(Cl)nn(Cc4ccc(F)c(F)c4)c3=O)cc12 [II-43] | 0.008 µM
CN(Cc1cnn(-c2ccc(F)cc2)c1)c1ncnc2ccc(C#CCNC(=O)c3cccn(Cc4ccc(F)c(F)c4)c3=O)cc12 [II-44] | 0.04 µM
COc1cccc(CN(C)c2ncnc3ccc(C#CCNC(=O)c4cccn(Cc5ccc(F)c(F)c5)c4=O)cc23)c1 [II-45] | 0.063 µM
CN(Cc1cccc2ncccc12)c1ncnc2ccc(C#CCNC(=O)c3cccn(Cc4ccc(F)c(F)c4)c3=O)cc12 [II-46] | 0.006 µM
CCN1CCC(CN(C)c2ncnc3ccc(C#CCNC(=O)c4cccn(Cc5ccc(F)c(F)c5)c4=O)cc23)C1 (stereo not drawn) [II-47] | 0.117 µM
CN(c1ccccc1)c1ncnc2ccc(C#CCNC(=O)c3cncn(Cc4ccc(F)c(F)c4)c3=O)cc12 [II-48] | 0.015 µM
CCN(CC)c1ncnc2ccc(C#CCNC(=O)c3c(C)n(CCO)n(Cc4ccc(F)c(F)c4)c3=O)cc12 [II-49] | 0.05 µM
CN(C)C(=O)CNc1ncnc2ccc(C#CCNC(=O)c3cccn(Cc4ccc(F)c(F)c4)c3=O)cc12 [II-50] | 0.182 µM
CNc1ncnc2ccc(C#CCNC(=O)c3cccn(Cc4ccoc4)c3=O)cc12 [II-51] | 0.77 µM
COc1ccc(CN(C)c2ncnc3ccc(C#CCNC(=O)c4cccn(Cc5ccc(F)c(F)c5)c4=O)cc23)cc1 [II-52] | 0.006 µM
CNc1ncnc2ccc(C#CCNC(=O)c3cncn(Cc4ccccc4F)c3=O)cc12 [II-53] | 0.486 µM
CCN(CC)c1ncnc2ccc(C#CCNC(=O)c3cccn(C(C)c4ccc(F)c(F)c4)c3=O)cc12 (stereo not drawn) [II-54] | 0.008 µM
CCN(CC)c1ncnc2ccc(C#CCNC(=O)c3cccn([C@@H](C)c4ccccc4)c3=O)cc12 [II-55] | 0.06 µM
CCN(CC)c1ncnc2ccc(C#CCNC(=O)c3cccn([C@H](CO)c4ccccc4)c3=O)cc12 [II-56] | 0.006 µM
CNc1ncnc2ccc(C#CCNC(=O)c3cc(NCCN(C)C)nn(Cc4ccc(F)c(F)c4)c3=O)cc12 [II-57] | 0.357 µM
CNc1ncnc2ccc(C#CCNC(=O)c3cc(Cl)nn(Cc4ccc(F)c(F)c4)c3=O)cc12 [II-58] | 0.01 µM
CNc1ncnc2ccc(C#CCNC(=O)c3cc(OC)nn(Cc4ccc(F)c(F)c4)c3=O)cc12 [II-59] | 0.009 µM
CNc1ncnc2ccc(C#CCNC(=O)c3cccn([C@@H](C)c4ccc(F)c(F)c4)c3=O)cc12 [II-60] | 0.008 µM
CONc1ncnc2ccc(C#CCNC(=O)c3cncn(Cc4ccc(F)c(F)c4)c3=O)cc12 [II-61] | 0.057 µM

SMILES | IC50
CON(C)c1ncnc2ccc(C#CCNC(=O)c3cncn(Cc4ccc(F)c(F)c4)c3=O)cc12 [II-62] | 0.016 µM
O=C(NCC#Cc1ccc2ncnc(-c3ccccc3)c2c1)c1cncn(Cc2ccc(F)c(F)c2)c1=O [II-65] | 0.058 µM
Cc1ncnc2ccc(C#CCNC(=O)c3cncn(Cc4ccc(F)c(F)c4)c3=O)cc12 [II-66] | 0.098 µM
O=C(NCC#Cc1ccc2ncnc(C3=CCNCC3)c2c1)c1cncn(Cc2ccc(F)c(F)c2)c1=O [II-67] | 0.096 µM
CN(C)CCCNC(=O)c1cnc2ccc(C#CCNC(=O)c3cncn(Cc4ccc(F)c(F)c4)c3=O)cc2c1 [II-68] | 0.02 µM
CNC(=O)c1cnc2ccc(C#CCNC(=O)c3cncn(Cc4ccc(F)c(F)c4)c3=O)c(C)c2c1 [II-69] | 0.021 µM
Cc1c(C#CCNC(=O)c2cncn(Cc3ccc(F)c(F)c3)c2=O)ccc2ncc(C(=O)N(C)C)cc12 [II-70] | 0.185 µM
CCN(CC)C(=O)c1cnc2ccc(C#CCNC(=O)c3cncn(Cc4ccc(F)c(F)c4)c3=O)cc2c1 [II-71] | 1 µM
CNC(=O)c1cnc2ccc(C#CCNC(=O)c3cncn(Cc4ccc(F)c(F)c4)c3=O)cc2c1 [II-72] | 0.045 µM
O=C(NC1CC1)c1cnc2ccc(C#CCNC(=O)c3cncn(Cc4ccc(F)c(F)c4)c3=O)cc2c1 [II-73] | 0.031 µM
CN1CCC(NC(=O)c2cnc3ccc(C#CCNC(=O)c4cncn(Cc5ccc(F)c(F)c5)c4=O)cc3c2)CC1 [II-74] | 0.012 µM
CCNC(=O)c1cnc2ccc(C#CCNC(=O)c3cncn(Cc4ccc(F)c(F)c4)c3=O)cc2c1 [II-76] | 0.031 µM
CC(C)NC(=O)c1cnc2ccc(C#CCNC(=O)c3cncn(Cc4ccc(F)c(F)c4)c3=O)cc2c1 [II-77] | 0.053 µM
CCN1CCN(C(=O)c2cnc3ccc(C#CCNC(=O)c4cncn(Cc5ccc(F)c(F)c5)c4=O)cc3c2)CC1 [II-78] | 0.402 µM
CN(C)CCCN(C)C(=O)c1cnc2ccc(C#CCNC(=O)c3cncn(Cc4ccc(F)c(F)c4)c3=O)cc2c1 [II-79] | 0.201 µM
CN1CCCC(NC(=O)c2cnc3ccc(C#CCNC(=O)c4cncn(Cc5ccc(F)c(F)c5)c4=O)cc3c2)C1 (stereo not drawn) [II-80] | 0.064 µM
CN1CC(NC(=O)c2cnc3ccc(C#CCNC(=O)c4cncn(Cc5ccc(F)c(F)c5)c4=O)cc3c2)C1 [II-81] | 0.02 µM
O=C(NCC#Cc1ccc2ncc(C(=O)N3CCOCC3)cc2c1)c1cncn(Cc2ccc(F)c(F)c2)c1=O [II-82] | 0.531 µM
O=C(NCC#Cc1ccc2ncc(C(=O)N3CCNCC3)cc2c1)c1cncn(Cc2ccc(F)c(F)c2)c1=O [II-83] | 0.286 µM
CN1CCN(C(=O)c2cnc3ccc(C#CCNC(=O)c4cncn(Cc5ccc(F)c(F)c5)c4=O)cc3c2)CC1 [II-84] | 0.405 µM
COCCN1CCN(C(=O)c2cnc3ccc(C#CCNC(=O)c4cncn(Cc5ccc(F)c(F)c5)c4=O)cc3c2)CC1 [II-85] | 1 µM

SMILES | IC50
CN(C)C(=O)c1cnc2ccc(C#CCNC(=O)c3cncn(Cc4ccc(F)c(F)c4)c3=O)cc2c1 [II-86] | 0.355 µM
CN1CCC(NC(=O)c2cnc3ccc(C#CCNC(=O)c4cncn(Cc5ccc(F)c(F)c5)c4=O)cc3c2)C1 (stereo not drawn) [II-87] | 0.024 µM
O=C(NCC#Cc1ccc2nccc(-c3cc[nH]c3)c2c1)c1cncn(Cc2ccc(F)c(F)c2)c1=O [II-88] | 0.019 µM
O=C(NCC#Cc1ccc2nccc(-c3cn[nH]c3)c2c1)c1cncn(Cc2ccc(F)c(F)c2)c1=O [II-89] | 0.035 µM
O=C(NCC#Cc1ccc2nccc(C3=CCNCC3)c2c1)c1cncn(Cc2ccc(F)c(F)c2)c1=O [II-90] | 0.086 µM
O=C(NCC#Cc1ccc2nccc(C3=CCCNC3)c2c1)c1cncn(Cc2ccc(F)c(F)c2)c1=O [II-91] | 0.014 µM
Cc1ccnc2ccc(C#CCNC(=O)c3cncn(Cc4ccc(F)c(F)c4)c3=O)cc12 [II-92] | 0.056 µM
Cc1n[nH]cc1-c1ccnc2ccc(C#CCNC(=O)c3cncn(Cc4ccc(F)c(F)c4)c3=O)cc12 [II-93] | 0.024 µM
CN(C)c1c(C#N)cnc2ccc(C#CCNC(=O)c3cccn(Cc4ccc(F)c(F)c4)c3=O)cc12 [II-94] | 0.027 µM
CN(c1c(C#N)cnc2ccc(C#CCNC(=O)c3cccn(Cc4ccc(F)c(F)c4)c3=O)cc12)C1CCCCC1 [II-95] | 0.544 µM
N#Cc1cnc2ccc(C#CCNC(=O)c3cccn(Cc4ccc(F)c(F)c4)c3=O)cc2c1NCCc1ccccc1 [II-96] | 0.607 µM
N#Cc1cnc2ccc(C#CCNC(=O)c3cccn(Cc4ccc(F)c(F)c4)c3=O)cc2c1NCC1CCCCC1 [II-97] | 1.05 µM
CN(Cc1ccccc1)c1c(C#N)cnc2ccc(C#CCNC(=O)c3cccn(Cc4ccc(F)c(F)c4)c3=O)cc12 [II-98] | 0.184 µM
CN(CC1CCCCC1)c1c(C#N)cnc2ccc(C#CCNC(=O)c3cccn(Cc4ccc(F)c(F)c4)c3=O)cc12 [II-99] | 0.683 µM
CCN(CC)c1c(C#N)cnc2ccc(C#CCNC(=O)c3cccn(Cc4ccc(F)c(F)c4)c3=O)cc12 [II-100] | 0.276 µM
CC(C)N(C)c1c(C#N)cnc2ccc(C#CCNC(=O)c3cccn(Cc4ccc(F)c(F)c4)c3=O)cc12 [II-101] | 0.148 µM
N#Cc1cnc2ccc(C#CCNC(=O)c3cccn(Cc4ccc(F)c(F)c4)c3=O)cc2c1NCc1ccccc1 [II-102] | 0.871 µM
CCN(C)c1c(C#N)cnc2ccc(C#CCNC(=O)c3cccn(Cc4ccc(F)c(F)c4)c3=O)cc12 [II-103] | 0.077 µM
CC(C)Nc1c(C#N)cnc2ccc(C#CCNC(=O)c3cccn(Cc4ccc(F)c(F)c4)c3=O)cc12 [II-104] | 0.147 µM
CNc1c(C#N)cnc2ccc(C#CCNC(=O)c3cccn(Cc4ccc(F)c(F)c4)c3=O)cc12 [II-105] | 0.046 µM
CN(CCc1ccccc1)c1c(C#N)cnc2ccc(C#CCNC(=O)c3cccn(Cc4ccc(F)c(F)c4)c3=O)cc12 [II-106] | 0.414 µM
